Patent US20100137313A1 (ASTRAZENECA AB, priority 2008, published 2010)

Molecular target: S. pneumoniae Topoisomerase IV ATPase (ParE) (Streptococcus pneumoniae serotype 4, UniProt Q59961)
Test: S. pneumoniae Topoisomerase IV ATPase inhibition
Format: biochemical
Conditions: values marked * are an average of two or more data points, read-out: % Inh (13 μM) of S. pneumoniae Topoisomerase IV ATPase
Description: S. pneumoniae Topoisomerase IV ATPase Inhibition Activity: Compounds may be tested for inhibition of S. pneumoniae ParE ATPase activity using an ammonium molybdate/malachite green-based phosphate detection assay (Lanzetta, P. A., L. J. Alvarez, P. S. Reinach, and O. A. Candia, 1979, 100: 95-97). Assays are performed in multiwell plates in 30 μl reactions containing: 20 mM Tris buffer pH 8.0, 50 mM ammonium acetate, 8.0 mM magnesium chloride, 0.5 mM ethylenediaminetetraacetic acid, 5% glycerol, 5 mM 1,4-Dithio-DL-threitol, 0.005% Brij-35, 5 μg/ml sheared salmon sperm DNA, 1.25 nM S. pneumoniae ParE, 160 μM ATP, and test compound in dimethylsulfoxide. Reactions are quenched with 30 μl of ammonium molybdate/malachite green detection reagent containing 1.2 mM malachite green hydrochloride, 8.5 mM ammonium molybdate tetrahydrate, and 1 M hydrochloric acid. Plates are read in an absorbance plate reader at 650 nm and percent inhibition values are calculated using dimethylsulfoxide (2%)-containing reactions as 0% inhibition and EDTA-containing ([…]) reactions as 100% inhibition controls. An IC50 measurement of compound potency for each compound can be determined from reactions performed in the presence of 10 different compound concentrations.
Many of the compounds of the invention were tested in an assay substantially similar to the assays described above for measuring the inhibition of E.coli GyrB ATPase, E. coli Topoisomerase IV ATPase, S. aureus GyrB ATPase, and S. pneumoniae Topoisomerase IV ATPase, and had IC50 values of <200 μM in one or more assays.

S. pneumoniae Topoisomerase IV ATPase (ParE), sequence (Q59961 whole entry): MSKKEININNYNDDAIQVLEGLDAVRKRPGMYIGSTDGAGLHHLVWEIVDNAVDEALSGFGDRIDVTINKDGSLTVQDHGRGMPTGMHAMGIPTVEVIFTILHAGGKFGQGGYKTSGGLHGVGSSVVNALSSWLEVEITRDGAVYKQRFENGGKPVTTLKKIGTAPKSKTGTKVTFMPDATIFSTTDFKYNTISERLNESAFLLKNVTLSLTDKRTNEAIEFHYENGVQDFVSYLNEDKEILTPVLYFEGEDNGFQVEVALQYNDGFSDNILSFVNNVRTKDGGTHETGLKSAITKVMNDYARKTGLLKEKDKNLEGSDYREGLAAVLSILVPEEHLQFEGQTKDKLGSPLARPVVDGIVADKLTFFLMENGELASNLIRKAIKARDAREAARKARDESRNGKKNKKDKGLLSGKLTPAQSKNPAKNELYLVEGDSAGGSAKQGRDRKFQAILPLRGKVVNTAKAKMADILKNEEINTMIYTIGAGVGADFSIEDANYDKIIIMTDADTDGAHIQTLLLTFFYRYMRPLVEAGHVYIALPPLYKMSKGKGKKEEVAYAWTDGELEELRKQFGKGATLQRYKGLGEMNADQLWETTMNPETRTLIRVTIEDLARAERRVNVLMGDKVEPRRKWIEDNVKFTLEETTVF

| Structure (SMILES) | inhibition at 13 µM |
| --- | --- |
| OC1CCN(c2nc(Nc3ccc(F)c(Cl)c3)ncc2-c2cncnc2)CC1 [Example 60, 1-[2-[(3-chloro-4-fluorophenyl)amino]-5-pyrimidin-5-ylpyrimidin-4-yl]piperidin-4-ol] | 72.3% |
| OCC1CCCN(c2nc(Nc3ccc(F)c(Cl)c3)ncc2-c2cncnc2)C1 (stereo not shown) [Example 61, [1-[2-[(3-chloro-4-fluorophenyl)amino]-5-pyrimidin-5-ylpyrimidin-4-yl]piperidin-3-yl]methanol] | 74.8% |
| Fc1ccc(Nc2ncc(-c3cncnc3)c(N3CCC(N4CCOCC4)CC3)n2)cc1Cl [Example 62, N-(3-chloro-4-fluorophenyl)-4-(4-morpholin-4-ylpiperidin-1-yl)-5-pyrimidin-5-ylpyrimidin-2-amine] | 71% |
| CNC(=O)C1CCN(c2nc(Nc3ccc(F)c(Cl)c3)ncc2-c2cncnc2)CC1 [Example 63, 1-[2-[(3-chloro-4-fluorophenyl)amino]-5-pyrimidin-5-ylpyrimidin-4-yl]-N-methylpiperidine-4-carboxamide] | 69.9% |
| Fc1ccc(Nc2ncc(-c3cncnc3)c(N3CCC(F)CC3)n2)cc1Cl [Example 64, N-(3-chloro-4-fluorophenyl)-4-(4-fluoropiperidin-1-yl)-5-pyrimidin-5-ylpyrimidin-2-amine] | 65.4% |
| COC1CCN(c2nc(Nc3ccc(F)c(Cl)c3)ncc2-c2cncnc2)CC1 [Example 65, N-(3-chloro-4-fluorophenyl)-4-(4-methoxypiperidin-1-yl)-5-pyrimidin-5-ylpyrimidin-2-amine] | 75.9% |
| OC1CCN(c2nc(Nc3ccc(F)c(Cl)c3)ncc2-c2cncnc2)C1 (stereo not shown) [Example 66, 1-[2-[(3-chloro-4-fluorophenyl)amino]-5-pyrimidin-5-ylpyrimidin-4-yl]pyrrolidin-3-ol] | 62.1% |
| Fc1ccc(Nc2ncc(-c3cncnc3)c(N3CCC3)n2)cc1Cl [Example 67, 4-(azetidin-1-yl)-N-(3-chloro-4-fluorophenyl)-5-pyrimidin-5-ylpyrimidin-2-amine] | 53.4% |
| O[C@H]1CC[C@H](Nc2nc(Nc3ccc(F)c(Cl)c3)ncc2-c2cncnc2)CC1 [Example 68, trans-4-[[2-[(3-chloro-4-fluorophenyl)amino]-5-pyrimidin-5-ylpyrimidin-4-yl]amino]cyclohexan-1-ol] | 72.9% |
| CC(=O)NC1CCN(c2nc(Nc3ccc(F)c(Cl)c3)ncc2-c2cncnc2)CC1 [Example 69, N-[1-[2-[(3-chloro-4-fluorophenyl)amino]-5-pyrimidin-5-ylpyrimidin-4-yl]piperidin-4-yl]acetamide] | 77% |
| Cc1cc(C(F)(F)F)nn1-c1nc(Nc2ccc(F)c(Cl)c2)ncc1-c1cncnc1 [Example 70, N-(3-chloro-4-fluorophenyl)-4-[5-methyl-3-(trifluoromethyl)-1H-pyrazol-1-yl]-5,5′-bipyrimidin-2-amine] | 86.6% |
| Fc1ccc(Nc2ncc(-c3cncnc3)c(-n3ccc(C(F)(F)F)n3)n2)cc1Cl [Example 71, N-(3-chloro-4-fluorophenyl)-4-[3-(trifluoromethyl)-1H-pyrazol-1-yl]-5,5′-bipyrimidin-2-amine] | 66.7% |
| Fc1ccc(Nc2ncc(-c3cncnc3)c(-n3cnc(Cl)c3Cl)n2)cc1Cl [Example 72, N-(3-chloro-4-fluorophenyl)-4-(4,5-dichloro-1H-imidazol-1-yl)-5,5′-bipyrimidin-2-amine] | 52.6% |
| Fc1ccc(Nc2ncc(-c3cncnc3)c(-n3cccc3)n2)cc1Cl [Example 73, N-(3-chloro-4-fluorophenyl)-4-(1H-pyrrol-1-yl)-5,5′-bipyrimidin-2-amine] | 89.6% |
| CC(C)(C)OC(=O)NCCCNc1nc(Nc2ccc(F)c(Cl)c2)ncc1-c1cncnc1 [Example 74, tert-butyl 3-(2-(3-chloro-4-fluorophenylamino)-5,5′-bipyrimidin-4-ylamino)propylcar-bamate] | 103% |
| COCCCNc1nc(Nc2ccc(F)c(Cl)c2)ncc1-c1cncnc1 [Example 75, N^2-(3-chloro-4-fluorophenyl)-N^4-(3-methoxypropyl)-5,5′-bipyrimidin-2,4-diamine] | 97.6% |
| Fc1ccc(Nc2ncc(-c3cncnc3)c(N3CCOCC3)n2)cc1Cl [Example 76, N-(3-chloro-4-fluorophenyl)-4-morpholin-5,5′-bipyrimidin-2-amine] | 79.3% |

| Structure (SMILES) | inhibition at 13 µM |
| --- | --- |
| COc1ncc(-c2cnc(Nc3ccc(F)c(Cl)c3)nc2N2CCOCC2)cn1 [Example 77, N-(3-chloro-4-fluorophenyl)-2′-methoxy-4-morpholin-5,5′-bipyrimidin-2-amine] | 83% |
| COCCCNc1nc(Nc2ccc(F)c(Cl)c2)ncc1-c1cnc(OC)nc1 [Example 78, N^2-(3-chloro-4-fluorophenyl)-2′-methoxy-N^4-(3-methoxypropyl)-5,5′-bipyrimidine-2,4-diamine] | 80.9% |
| CN(C)CCCNc1nc(Nc2ccc(F)c(Cl)c2)ncc1-c1cncc(-c2noc(=O)[nH]2)c1 [Example 81, Sodium 3-(5-(2-(3-chloro-4-fluorophenylamino)-4-(3-(dimethylamino)propylamino)pyrimidin-5-yl)pyridin-3-yl)-5-oxo-1,2,4-oxadiazol-4-ide] | 72.6% |
| Cc1cc(C)n(-c2nc(Nc3ccc(F)c(Cl)c3)ncc2-c2cncnc2)n1 [Example 82, N-(3-chloro-4-fluorophenyl)-4-(3,5-dimethyl-1H-pyrazol-1-yl)-5,5′-bipyrimidin-2-amine] | 80.1% |
| Fc1ccc(Nc2ncc(-c3cncnc3)c(-n3cnc(C(F)(F)F)c3)n2)cc1Cl [Example 84, N-(3-chloro-4-fluorophenyl)-4-[4-(trifluoromethyl)-1H-imidazol-1-yl]-5,5′-bipyrimidin-2-amine] | 79.6% |
| Cc1nccn1-c1nc(Nc2ccc(F)c(Cl)c2)ncc1-c1cncnc1 [Example 85, N-(3-chloro-4-fluorophenyl)-4-(2-methyl-1H-imidazol-1-yl)-5,5′-bipyrimidin-2-amine] | 66.8% |
| Fc1ccc(Nc2ncc(-c3cncnc3)c(-n3nccn3)n2)cc1Cl [Example 86, N-(3-chloro-4-fluorophenyl)-4-(2H-1,2,3-triazol-2-yl)-5,5′-bipyrimidin-2-amine] | 91.1% |
| Fc1ccc(Nc2ncc(-c3cncnc3)c(-n3nnc4ncccc43)n2)cc1Cl [Example 88, N-(3-chloro-4-fluorophenyl)-4-(1H-[1,2,3]triazolo[4,5-b]pyridin-1-yl)-5,5′-bipyrimidin-2-amine] | 102% |
| Fc1ccc(Nc2ncc(-c3cncnc3)c(-n3nnc4ccccc43)n2)cc1Cl [Example 89, 4-(1H-benzotriazol-1-yl)-N-(3-chloro-4-fluorophenyl)-5,5′-bipyrimidin-2-amine] | 85.3% |
| CCCNc1nc(Nc2ccc(F)c(Cl)c2)ncc1-c1cncc(C(=O)OCC)c1 [Example 90, 5-[2-(3-Chloro-4-fluoro-phenylamino)-4-propylamino-pyrimidin-5-yl]-nicotinic acid ethyl ester] | 24.6% |
| CCOC(=O)c1cncc(-c2cnc(Nc3ccc(F)c(Cl)c3)nc2NCCCN2CCCC2=O)c1 [Example 91, 5-{2-(3-Chloro-4-fluoro-phenylamino)-4-[3-(2-oxo-pyrrolidin-1-yl)-propylamino]-pyrimidin-5-yl}-nicotinic acid ethyl ester] | 83.1% |
| CCOC(=O)c1cncc(-c2cnc(Nc3ccc(F)c(Cl)c3)nc2NC2CCN(C(C)=O)CC2)c1 [Example 92, 5-[4-(1-Acetyl-piperidin-4-ylamino)-2-(3-chloro-4-fluoro-phenylamino)-pyrimidin-5-yl]-nicotinic acid ethyl ester] | 3.56% |
| CCOC(=O)c1cncc(-c2cnc(Nc3ccc(F)c(Cl)c3)nc2NCCN(C)C)c1 [Example 93] | 79.6% |
| CCOC(=O)c1cncc(-c2cnc(Nc3ccc(F)c(Cl)c3)nc2NCCNC(C)=O)c1 [Example 94, 5-[4-(2-Acetylamino-ethylamino)-2-(3-chloro-4-fluoro-phenylamino)-pyrimidin-5-yl]-nicotinic acid ethyl ester] | 77.5% |
| CCOC(=O)c1cncc(-c2cnc(Nc3ccc(F)c(Cl)c3)nc2NCc2ccccn2)c1 [Example 95, 5-{2-(3-Chloro-4-fluoro-phenylamino)-4-[(pyridin-2-ylmethyl)-amino]-pyrimidin-5-yl}-nicotinic acid ethyl ester] | -0.48% |
| CCOC(=O)c1cncc(-c2cnc(Nc3ccc(F)c(Cl)c3)nc2NCc2cccnc2)c1 [Example 96, 5-{2-(3-Chloro-4-fluoro-phenylamino)-4-[(pyridin-3-ylmethyl)-amino]-pyrimidin-5-yl}-nicotinic acid ethyl ester] | 62.2% |
| CCOC(=O)c1cncc(-c2cnc(Nc3ccc(F)c(Cl)c3)nc2NCc2ccncc2)c1 [Example 97, 5-{2-(3-Chloro-4-fluoro-phenylamino)-4-[(pyridin-4-ylmethyl)-amino]-pyrimidin-5-yl}-nicotinic acid ethyl ester] | 75.9% |
